Results taken from patent US7615628B2, “Imidazopyridine derivatives” (Riken, priority 2005, dated 2009).

Assays:
[1] = tested on: human fetal lung fibroblast (normal diploid fibroblast) WI-38 cells; assay: MTT assay, cell growth inhibitory activity on normal cells; format: cell-based; settings: 72 hours incubation at 37° C., WI-38 normal cells, value ± standard deviation
Description: MTT assay was performed to examine two test compounds, i.e., 7-(2-thienyl)-3-(2-deoxy-1-β-D-ribofuranosyl)-3H-imidazo[4,5-b]pyridine (herein referred to as Compound IA) and 5-amino-7-(2-thienyl)-3-(2-deoxy-1-β-D-ribofuranosyl)-3H-imidazo[4,5-b]pyridine (herein referred to as Compound IB) for their cell growth inhibitory effect on cultured human fibrosarcoma HT-1080 cells and human fetal lung fibroblast (normal diploid fibroblast) WI-38 cells. These cells (1×10^4 cells/ml) were seeded in 96-well microplates (IWAKI) at 90 μl/well. After culturing at 37° C. for 3 to 4 hours, test compound solutions (10 μl each), which had been dissolved in PBS-5% DMSO and adjusted to various concentrations, were added and incubated at 37° C. for 72 hours. […] After incubation was continued at 37° C. for 16 hours, the absorbance at 570 nm was measured using a microplate reader to calculate % inhibition according to the following equation. % Inhibition=100×[1−(Abssample−Absbackground)/(Absnegative control−Absbackground)] […]
(§1) Abssample: Absorbance in the presence of test compound
(§2) Absbackground: Absorbance in the absence of cells and test compound
Absnegative control: Absorbance in the absence of test compound […]

[2] = tested on: cultured human fibrosarcoma HT-1080 cells; assay: MTT assay, cell growth inhibitory activity on cancer cells; format: cell-based; settings: for higher growth inhibitory activity on cancer cells than on normal cells: HT-1080 cancer cells versus WI-38 normal cells, from IC50 values; for IC50: Homo sapiens, MTT assay, 72 hours incubation at 37° C., HT-1080 cells, value ± standard deviation
Description: MTT assay was performed to examine two test compounds, i.e., 7-(2-thienyl)-3-(2-deoxy-1-β-D-ribofuranosyl)-3H-imidazo[4,5-b]pyridine (herein referred to as Compound IA) and 5-amino-7-(2-thienyl)-3-(2-deoxy-1-β-D-ribofuranosyl)-3H-imidazo[4,5-b]pyridine (herein referred to as Compound IB) for their cell growth inhibitory effect on cultured human fibrosarcoma HT-1080 cells and human fetal lung fibroblast (normal diploid fibroblast) WI-38 cells. These cells (1×10^4 cells/ml) were seeded in 96-well microplates (IWAKI) at 90 μl/well. After culturing at 37° C. for 3 to 4 hours, test compound solutions (10 μl each), which had been dissolved in PBS-5% DMSO and adjusted to various concentrations, were added and incubated at 37° C. for 72 hours. To the wells containing these solutions, a PBS solution of MTT (5 mg/ml) was added in 25 μl volumes and incubated at 37° C. for an additional 2 hours, followed by addition of a 50% DMF-20% SDS solution in 100 μl to each well. After incubation was continued at 37° C. for 16 hours, the absorbance at 570 nm was measured using a microplate reader to calculate % inhibition according to the following equation. % Inhibition=100×[1−(Abssample−Absbackground)/(Absnegative control−Absbackground)] [Expression 2]
as §1, §2
Absnegative control: Absorbance in the absence of test compound
The concentration (IC50 μM) required for each test compound to cause 50% inhibition of cell growth was calculated from a concentration-inhibition curve. The IC50 values are shown in Table 1 below, along with their standard deviation.

| Compound | IC50 [1] | higher growth inhibitory activity on cancer cells than on normal cells [2] | IC50 [2] |
| --- | --- | --- | --- |
| Nc1cc(-c2cccs2)c2ncn([C@H]3C[C@@H](O)[C@@H](CO)O3)c2n1 [Compound IB, 5-amino-7-(2-thienyl)-3-(2-deoxy-1-β-D-ribofuranosyl)-3H-imidazo[4,5-b]pyridine] | 330 ± 40 µM | about 10 fold | 34 µM |
| OC[C@H]1O[C@@H](n2cnc3c(-c4cccs4)ccnc32)C[C@H]1O [Compound IA, 7-(2-thienyl)-3-(2-deoxy-1-β-D-ribofuranosyl)-3H-imidazo[4,5-b]pyridine] | 290 ± 130 µM | about 5 fold | 62 µM |
